Assay results reported in US20240099214A1, “PLANT DEFENCE GENE EXPRESSION” (UPL Corporation Limited, priority 2021, published 2024).

Experiments:
[1] = tested on: Nac transcription factor 29-like (gene 8, Solyc05g007770.2); test: qRT-PCR expression of gene 8 in tomato leaves; type: in vivo, Tomato ecotype corbarino; parameters: key: relative expression normalized to a-tubulin housekeeping gene
Procedure: (§1) Tomato ecotype “corbarino” reported to be susceptible to TSWV infection was used in the experiment. Plants were grown in pots in a climatic chamber with a photoperiod of 16/8 hour at 25° C.
(§2) The viral strain (TSWV PV PV-0393) was utilized in the experiment. The virus was mechanically inoculated and propagated on tomato “corbarino”. The inoculum was prepared in an ice-cooled mortar grounding 1 gr of infected tomato tissue in 10 ml of Na-phosphate buffer 0.01M. The fresh prepared inoculum was stored in ice before use. Tomato plants at BBCH16 were dusted with Carborundum 600 mesh and selected leaves were rubbed with some droplets of inoculum. After 5 min. plants were sprayed with sterile water to remove the excess of inoculum and preserve the cell turgor.
(§3) Four treatments were compared: i) Mock inoculated; ii) TSWV; iii) 0.25% Laminarin; iv) 0.25% Laminarin+TSWV. In the last treatment the virus was inoculated 24 hrs after the laminarin application.
(§4) Total RNA was extracted from systemic infected tomato leaves by using the Quick-RNA Plant Kit (Zymo Research) following the manufacturer instructions. The extractions were carried out using three plants after 12 h, 24 h, 48 h, 72 h, 7 days after inoculation. Leaves were instantly frozen in liquid nitrogen after cutting to avoid any deterioration of the sample as well as any defense reaction. The RNA concentration was quantified by measuring the absorbance at 260 nm using a Nanodrop 2000 (Thermofisher). The purity of all of the RNA samples was assessed at an absorbance ratio of OD260/280 and OD260/230, while its structural integrity was checked by agarose gel electrophoresis. Only high-quality RNA with OD 260/280 and OD 260/230>2 was used for subsequent steps. Single-stranded cDNA was synthesized from 1 μg of total RNA using an iScript™ Select cDNA Synthesis Kit and random hexamers as primers (Bio-Rad, Milan, Italy), according to the manufacturer's instructions. Three biological replicates were created from the 3 leaves collected to test 15 genes. Alpha tubulin was used as reference gene.
(§5) qPCR reactions were performed with BioRad (Applied Biosystems, Foster City, CA, USA) using SYBR R Green. Each reaction was performed in 20 μl containing 10 μl of 2× Power SYBR Green PCR Master Mix (Life Technologies), 0.2-0.3 μM primers and cDNA samples diluted 1:20. Each qPCR reaction was performed in triplicate. Reactions were run using the cycling parameter described previously (Reid et al., 2006) and the qPCR data were analyzed by the Ct method (Pfaffl, 2001). In order to analyze the qPCR data, a-tubulin gene was used as housekeeping to determine the relative expression level of the other genes analyzed in this work. For the determination of qPCR efficiency of each primer pairs, a standard curve was performed using the following cDNA dilutions: 1:4, 1:16, 1:64; 1:256 and 1:1024. Every measurement was made in triplicate. The corresponding qPCR efficiencies (E) were calculated for every primer pair with the software 7300 System SDS software (Applied Biosystems, Foster City, CA, USA) according to the equation E=(10−1/slope−1)×100 (Rutledge and Stewart, 2008).
(§6) The significance of the differences between the gene expressions levels were compared by one-way ANOVA (p=0.01) and the means were separated by Tukey post-hoc test using SPSS ver.26 ([…]).

[2] = tested on: PR protein (gene 12, M69248.1); test: qRT-PCR expression of gene 12 in tomato leaves; type: in vivo, Tomato ecotype corbarino; parameters: key to RQ1 / RQ2 / RQ3 / RQ mean: relative expression normalized to a-tubulin housekeeping gene; conditions: for gene 12 (PR1 protein) expression: laminarin treatment group not specified
Procedure: as §1, §2, §3, §4, §5, §6

[3] = Gene_12, 24 hr, treatment Laminarin
[4] = Gene_12, 24 hr, treatment Laminarin + virus
[5] = Gene_12, 48 hr, treatment Laminarin
[6] = Gene_12, 48 hr, treatment Laminarin + virus
[7] = Gene_12, 72 hr, treatment Laminarin
[8] = Gene_12, 72 hr, treatment Laminarin + virus

Question: Which RQ1 ([1]; 12 hr, Laminarin + virus) does the source give for laminarin here?
Answer: 0.9892

Question: And the RQ2 ([1]; 12 hr, Laminarin + virus)?
Answer: 10.375

Question: And the RQ3 ([1]; 12 hr, Laminarin + virus)?
Answer: 10.132

Question: What about the RQ mean ([1]; 12 hr, Laminarin + virus) of the same substance?
Answer: 10.133

Question: What about the RQ1 ([1]; 12 hr, Laminarin alone) of the same substance?
Answer: 0.8695

Question: And the RQ2 ([1]; 12 hr, Laminarin alone)?
Answer: 0.9166

Question: What about the RQ3 ([1]; 12 hr, Laminarin alone) of the same substance?
Answer: 10.042

Question: What about the RQ mean ([1]; 12 hr, Laminarin alone) of the same substance?
Answer: 0.9301

Question: And the RQ1 ([1]; 24 hr, Laminarin + virus)?
Answer: 11.335

Question: And the RQ2 ([1]; 24 hr, Laminarin + virus)?
Answer: 11.617

Question: What about the RQ3 ([1]; 24 hr, Laminarin + virus) of the same substance?
Answer: 0.9361

Question: And the RQ mean ([1]; 24 hr, Laminarin + virus)?
Answer: 10.771

Question: And the RQ1 ([1]; 24 hr, Laminarin alone)?
Answer: 12.571

Question: And the RQ2 ([1]; 24 hr, Laminarin alone)?
Answer: 13.299

Question: What about the RQ3 ([1]; 24 hr, Laminarin alone) of the same substance?
Answer: 11.584

Question: And the RQ mean ([1]; 24 hr, Laminarin alone)?
Answer: 12.485

Question: What about the RQ1 ([1]; 48 hr, Laminarin + virus) of the same substance?
Answer: 13.157

Question: And the RQ2 ([1]; 48 hr, Laminarin + virus)?
Answer: 0.7588

Question: What about the RQ3 ([1]; 48 hr, Laminarin + virus) of the same substance?
Answer: 11.274

Question: And the RQ mean ([1]; 48 hr, Laminarin + virus)?
Answer: 10.673

Question: What about the RQ1 ([1]; 48 hr, Laminarin alone) of the same substance?
Answer: 12.258

Question: What about the RQ2 ([1]; 48 hr, Laminarin alone) of the same substance?
Answer: 0.9690

Question: And the RQ3 ([1]; 48 hr, Laminarin alone)?
Answer: 15.958

Question: What about the RQ mean ([1]; 48 hr, Laminarin alone) of the same substance?
Answer: 12.635

Question: And the RQ1 ([1]; 72 hr, Laminarin + virus)?
Answer: 48.220

Question: What about the RQ2 ([1]; 72 hr, Laminarin + virus) of the same substance?
Answer: 49.687

Question: And the RQ3 ([1]; 72 hr, Laminarin + virus)?
Answer: 22.018

Question: What about the RQ mean ([1]; 72 hr, Laminarin + virus) of the same substance?
Answer: 39.975

Question: What about the RQ1 ([1]; 72 hr, Laminarin alone) of the same substance?
Answer: 24.387

Question: What about the RQ2 ([1]; 72 hr, Laminarin alone) of the same substance?
Answer: 43.671

Question: And the RQ3 ([1]; 72 hr, Laminarin alone)?
Answer: 32.797

Question: What about the RQ mean ([1]; 72 hr, Laminarin alone) of the same substance?
Answer: 33.618

Question: And the RQ1 ([2]; 12 hr, Laminarin + virus)?
Answer: 10.097

Question: What about the RQ2 ([2]; 12 hr, Laminarin + virus) of the same substance?
Answer: 0.9948

Question: What about the RQ3 ([2]; 12 hr, Laminarin + virus) of the same substance?
Answer: 11.722

Question: And the RQ mean ([2]; 12 hr, Laminarin + virus)?
Answer: 10.589

Question: And the RQ1 ([2]; 12 hr, Laminarin alone)?
Answer: 0.9616

Question: What about the RQ2 ([2]; 12 hr, Laminarin alone) of the same substance?
Answer: 11.039

Question: And the RQ3 ([2]; 12 hr, Laminarin alone)?
Answer: 10.693

Question: What about the RQ mean ([2]; 12 hr, Laminarin alone) of the same substance?
Answer: 10.449

Question: What about the “gene 12 (PR1 protein) expression” value ([2]; 48 hr post treatment, not statistically significant) of the same substance?
Answer: highly overexpressed

Question: And the “gene 12 (PR1 protein) expression” value ([2]; 72 hr, statistically significant)?
Answer: overexpression of gene 12 is slightly reduced

Question: And the “activation of systemic acquired resistance (SAR), inferred from gene 12 overexpression” value ([2]; 72 hr, tomato)?
Answer: activate the SAR

Question: And the RQ1 [2, 3]?
Answer: 11.678

Question: What about the RQ2 [2, 3] of the same substance?
Answer: 11.217

Question: And the RQ3 [2, 3]?
Answer: 10.555

Question: What about the RQ mean [2, 3] of the same substance?
Answer: 11.150

Question: And the RQ1 [2, 4]?
Answer: 0.9321

Question: What about the RQ2 [2, 4] of the same substance?
Answer: 11.344

Question: What about the RQ3 [2, 4] of the same substance?
Answer: 11.191

Question: And the RQ mean [2, 4]?
Answer: 10.619

Question: What about the RQ1 [2, 5] of the same substance?
Answer: 46.753

Question: What about the RQ3 [2, 5] of the same substance?
Answer: 31.171

Question: What about the RQ mean [2, 5] of the same substance?
Answer: 60.670

Question: What about the RQ1 [2, 6] of the same substance?
Answer: 42.751

Question: And the RQ2 [2, 6]?
Answer: 56.022

Question: And the RQ3 [2, 6]?
Answer: 37.918

Question: What about the RQ mean [2, 6] of the same substance?
Answer: 45.564

Question: What about the RQ1 [2, 7] of the same substance?
Answer: 44.543

Question: What about the RQ2 [2, 7] of the same substance?
Answer: 23.924

Question: What about the RQ3 [2, 7] of the same substance?
Answer: 31.675

Question: What about the RQ mean [2, 7] of the same substance?
Answer: 33.381

Question: What about the RQ1 [2, 8] of the same substance?
Answer: 36.333

Question: And the RQ2 [2, 8]?
Answer: 29.356

Question: What about the RQ3 [2, 8] of the same substance?
Answer: 21.584

Question: And the RQ mean [2, 8]?
Answer: 29.091
